Paper PMC5448350, “2-Pentadecyl-2-Oxazoline, the Oxazoline of Pea, Modulates Carrageenan-Induced Acute Inflammation” (Frontiers in Pharmacology, 2017)

Molecular target: T1, N-acylethanolamine-hydrolyzing acid amidase (NAAA) (Homo sapiens, UniProt Q02083)
T1 construct: human recombinant NAAA stably expressed in HEK-293 cells (12000 × g membrane fraction)
T1 sequence (Q02083 29-125): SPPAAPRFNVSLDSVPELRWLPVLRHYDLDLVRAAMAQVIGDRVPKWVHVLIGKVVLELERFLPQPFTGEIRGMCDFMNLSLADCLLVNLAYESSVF
T1 sequence (Q02083 126-359): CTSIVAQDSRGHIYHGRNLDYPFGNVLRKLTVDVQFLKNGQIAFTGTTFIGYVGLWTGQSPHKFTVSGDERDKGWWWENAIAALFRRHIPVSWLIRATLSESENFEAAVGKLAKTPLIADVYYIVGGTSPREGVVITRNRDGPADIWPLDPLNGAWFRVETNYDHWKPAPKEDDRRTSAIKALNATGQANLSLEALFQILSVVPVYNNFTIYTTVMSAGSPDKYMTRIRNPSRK
Test: [3H]-PEA hydrolysis assay in membranes of HEK-293 cells overexpressing human NAAA, pH […]
Assay type: cell-based
Details: HEK293

Structure (SMILES): CCCCCCCCCCCCCCCC1=NCCO1 [PEA-OXA, 2-Pentadecyl-2-oxazoline]
- inhibition at 50 µM: 75%
